Reference: patent US20240292836A1, “AGENTS FOR REPELLING, KNOCKING DOWN, AND/OR KILLING BLOOD-SUCKING ARTHROPODS AND USES THEREOF” (The United States of America, as represented by the …, priority 2023, published 2024)
“And” between values parts separate entries of the source, which are not always exact repeats. Identical values can stand only once. “Also recorded” adds a separate entry of the source.

What was measured:
[1] = test system: female Aedes aegypti adults; test: Arm-in-cage cloth-patch in vivo assay (topical repellency); conditions: for Minimum Effective Dose (MED): Mean ± SEM, lowest dosage with five or fewer bites through repellent-treated cloth in 1-minute exposure, at least three volunteers; for topical repellency (in words): initial screening dose of 0.187 mg/cm^2
Excerpt: Arm-in-Cage Test Cloth-Patch in vivo Assay Pyrethroid-susceptible yellow fever mosquitoes Ae. aegypti (Orlando strain) were reared in the United States Department of Agriculture Mosquito and Fly Research Unit in Gainesville, FL under standard protocols. Three to seven-day-old, starved female mosquitoes were collected using a “draw box” (Posey, K. and Schreck, C. E, 1981, “An airflow apparatus for selecting female mosquitoes for use in repellent and attraction studies” Mosquito News 41: 566-568; US. Department of Agriculture, 1977, Repellent activity of compounds submitted by Walter Reed Army Institute of Research. Part 1. Protection time and minimum effective dosage against Aedes aegypti mosquitoes. Tech. Bull. No. 1549) and were placed in cages at an approximate density 200 mosquitoes/cage. Repellency was determined according to a standard protocol (Bernier, U. R., et al, 2022. “Evaluation and application of repellent-treated uniform/clothing and textiles against vector mosquitoes,” In Advances in Arthropod Repellents (pp. 69-94). Academic Press) and reported as the minimum effective dosage (MED). […] A nylon leg stocking was placed over the arm to prevent direct contact of the repellent-treated cloth patch with the skin. […]. Cloth was treated by placing a rolled bandage (50 cm^2) into each vial containing 1 mL of solution and allowing the patch to absorb the solution completely. The cloth was taped over a 4 by 9-cm opening cut into a vinyl plastic sheet that was draped around the volunteers' arms and taped in place. The cloth was air-dried approximately 15 min before conducting each test. The work reported here is an average of the MED for at least three volunteers. Each volunteer covered his or her arm with a nylon stocking to avoid contact between the skin and the treated cloth and wore a rubber glove to prevent mosquito bites on the hand.
. The minimum effective dose (MED) was determined for each repellent and subject, defined as the lowest concentration that prevents biting). MEDs from each subject were pooled and reported as the average among all replicates/subjects with SEM. A minimum of 3 replicates were performed on at least three human subjects. Written informed consent was obtained for all human subjects used in this study in accordance with IRB protocol #20193320, as approved by the WCG™ IRB.
Statistical Analyses: Student's T-test was used to compare the means between tested compound and DEET and Icaridin in the arm-in-cage in vivo assay and neurophysiological study.

[2] = test system: female Aedes aegypti adults; test: High-throughput in vitro screening assay, spatial repellency; type: in vivo; conditions: for 30-minute RD50 compared with that of DEET: 30 minutes, α = 0.05; for RD50 (30 min), half-repellent dose / RD50 (60 min), half-repellent dose: dose per filter paper surface area, 95% CI; for spatial repellency (in words): highest-tested dose of 100 μg/cm^2
Excerpt: A high-throughput screening method for evaluating spatial repellency and vapor toxicity, described by Jiang S., et al. (2019, “High-Throughput Screening Method for Evaluating Spatial Repellency and Vapour Toxicity to Mosquitoes,” Med. Vet. Entomol. 33: 388-396), was used for this study. As shown in FIG. 2 of Jiang S., et al., assay tubes were constructed by covering 12.5 cm glass tubes on one side with netting secured by a rubber band. The tubes were used in horizontal orientation. Adult mosquitos 2-7 days old were anesthetized on ice for approximately 5 minutes and 16 females were transferred to each tube. The other end of the tube was then closed with netting and a rubber band.
The conical ends of 50 mL centrifuge tubes (Eppendorf, Enfield, Connecticut, USA) were cut at approximately the 10 mL mark to create the end caps for the assay tubes. […] For repellency tests, filter papers for the “untreated” side of the assay tube received pure acetone, whereas filter papers for the “treated” side received acetone solution containing a dissolved compound of interest. For knockdown tests, both filter papers were treated with acetone solution containing one or more compounds of interest. Acetone on both filter papers served as negative controls.
For repellency assays, filter papers were given 10 minutes of evaporation time before being placed into the end caps with forceps (Jiang S., et al. 2019, Supra). For knockdown assays, filter papers were given 5 minutes of evaporation time before being placed into the end caps. […] Assay tubes were capped such that the cap securely overlapped the glass but approximately 5 mm of space was left between the netting and the filter paper so that the mosquitos could not contact the filter paper.
Assay tubes were placed on a white polystyrene platform with wooden sticks glued flatly across it to prevent the tubes from rolling. A straight black line was drawn down the center of the platform and assay tubes were centered on the line at the beginning of the tests. In repellency assays, data were collected at 15, 30, and 60 minutes after the end caps were placed on the assay tubes. Assay tubes were not disturbed for the entire 60 minutes. At each time point, the number of mosquitos that remained on the treated side was visually assessed and recorded. The treated side was alternated with each set of tests. For repellency tests, DEET at a dose of 100 μg/cm^2 served as the positive control.
For the high-throughput in vitro screening assays, analyses were conducted with R version 4.2.2 statistical software (R Core Team, 2022, “R: a language and environment for statistical computing. R foundation for statistical computing,” Vienna, Austria). Concentrations were calculated in terms of filter paper surface area (μg/cm^2) for repellency assays and in terms of assay tube volume (μg/cm^3) for knockdown assays.
Half-repellent (RD50), half-knockdown (KD50), and half-lethal (LD50) doses were calculated from dose-response curves (DRCs) obtained by four-parameter log-logistic equation models generated using the drc package (Dose Response Curve Analyses Software; Ritz C. et al., 2015, “Dose-response analysis using R,” PLOS ONE 10: e0146021). For repellency test analysis, the upper and lower asymptotes for the proportion of mosquitos remaining on the treated side were fixed at 0.5 and 0, respectively. For KD and mortality test analysis, the upper and lower asymptotes for the proportion of mosquitos knocked down or killed were fixed at 1.0 and 0, respectively. To determine whether RD50, KD50, or LD50 values differed across compounds at each timepoint, a joint model assuming different values for each compound and a null model that assumed a single value for all compounds were compared with a likelihood ratio test.

SMILES | Minimum Effective Dose (MED) [1] | 30-minute RD50 compared with that of DEET [2] | topical repellency (in words) [1] | RD50 (30 min), half-repellent dose [2] [μg/cm^2] | RD50 (60 min), half-repellent dose [2] [μg/cm^2] | spatial repellency (in words) [2] | MED, times lower than the initial screening dose ([1]; relative to initial screening dose of 0.187 mg/cm^2) [times]
C=CCOC(=O)c1ccccc1N [AA, allyl anthranilate] | 0.039 mg/cm^2 | significantly lower than that of DEET | – | – | – | – | –
O=C(OCc1ccccc1)c1ccccc1 [BB, benzyl benzoate] | >0.187 mg/cm^2 | – | did not show any topical repellencies | >100 | >100 | did not show spatial repellencies | –
CCOC(=O)c1ccccc1OC [E2MOB, ethyl 2-methoxybenzoate] | – | significantly lower than that of DEET | did not exhibit topical repellency | 8.83 | – | – | –
CCOC(=O)c1cccc(N)c1 [E3AB, ethyl 3-aminobenzoate] | 0.039 mg/cm^2 | – | – | >100 | >100 | did not show any spatial repellencies | –
CCOC(=O)c1ccc(OC)cc1 [E4MOB, ethyl 4-methoxybenzoate] | >0.187 mg/cm^2 | significantly lower than that of DEET | did not show any topical repellencies; also recorded: did not exhibit topical repellency | – | – | – | –
CCOC(=O)c1ccccc1N [EA, ethyl anthranilate] | 0.037 mg/cm^2 | significantly lower than that of DEET | – | – | – | – | –
CCOC(=O)c1ccccc1 [EB, ethyl benzoate] | >0.187 mg/cm^2 | – | did not show any topical repellencies | >100 | >100 | did not show spatial repellencies | –
CCOC(=O)c1ccccc1NC=O [EFA, ethyl N-formylanthranilate] | 0.0062 mg/cm^2 | – | – | >100 | >100 | did not show spatial repellencies | 30
CCC(C)OC(=O)N1CCCCC1CCO (stereo not drawn) [Icaridin, 1-(1-Methylpropoxycarbonyl)-2-(2-hydroxyethyl)piperidine, reference compound] | 0.0150±0.004 mg/cm^2 and 0.0150 mg/cm^2 | – | – | – | – | – | –
COC(=O)c1ccccc1S(N)(=O)=O [M2ASB, methyl 2-(aminosulfonyl)benzoate] | >0.187 mg/cm^2 | – | did not show any topical repellencies | >100 | >100 | did not show spatial repellencies | –
COC(=O)c1ccccc1Cl [M2CB, methyl 2-chlorobenzoate] | 0.164 mg/cm^2 | not significantly different from that of DEET | demonstrated repellency at doses lower than 0.187 mg/cm^2 on at least one test subject | – | – | – | –
COC(=O)c1ccccc1C [M2MB, methyl 2-methylbenzoate] | 0.250 mg/cm^2 | – | demonstrated repellency at doses lower than 0.187 mg/cm^2 on at least one test subject | >100 | >100 | did not show spatial repellencies | –
COC(=O)c1cccc(C)c1 [M3MB, methyl 3-methylbenzoate] | 0.219 mg/cm^2 | – | demonstrated repellency at doses lower than 0.187 mg/cm^2 on at least one test subject | >100 | >100 | did not show spatial repellencies | –
COC(=O)c1cccc(OC)c1 [M3MOB, methyl 3-methoxybenzoate] | 0.266 mg/cm^2 | not significantly different from that of DEET | demonstrated repellency at doses lower than 0.187 mg/cm^2 on at least one test subject | – | – | – | –
COC(=O)c1ccc(N)cc1 [M4AB, methyl 4-aminobenzoate] | >0.187 mg/cm^2 | – | did not show any topical repellencies | >100 | >100 | did not show spatial repellencies | –
COC(=O)c1ccc(Cl)cc1 [M4CB, methyl 4-chlorobenzoate] | >0.187 mg/cm^2 | – | did not show any topical repellencies | >100 | >100 | did not show spatial repellencies | –
COC(=O)c1ccc(O)cc1 [M4HB, methyl 4-hyhroxylbenzoate] | >0.187 mg/cm^2 | – | did not show any topical repellencies | >100 | >100 | did not show spatial repellencies | –
COC(=O)c1ccc(C)cc1 [M4MB, methyl 4-methylbenzoate] | >0.187 mg/cm^2 | – | did not show any topical repellencies | >100 | >100 | did not show spatial repellencies | –
CNc1ccccc1C(=O)OC [MMA, methyl N-methylanthranilate] | – | significantly lower than that of DEET | – | – | – | – | –
CC(C)COC(=O)c1ccccc1N [iBA, iso-butyl anthranilate] | – | not significantly different from that of DEET | – | – | – | – | –
CCCCOC(=O)c1ccccc1N [nBA, n-butyl anthranilate] | – | – | – | >100 | – | did not show any spatial repellencies | –
